Measurements as given in patent publication US11020364B2, “Palmitoleic acid for use in inhibiting the attachment of sea lice to fish” (INSTITUT DE RECHERCHE EN SEMIOCHIMIE ET ETHOLOGIE APPLIQUEE, priority 2014, dated 2021).
Several values for one entry are separate records, joined by “and”; a condition that tells them apart may be missing. Identical values can stand only once.

How the values were obtained:
[1] = test system: Lepeophtheirus salmonis copepodids; assay: Infestation test with isomer in Atlantic salmon (Example 7); type: in vivo
Experimental: The aim of this example was to test the efficacy of an isomer of Sea Lice Copepodids Attachment Inhibiting Semiochemical (SCAIS) as an inhibitor of the infestation behavior of Lepoephtheirus salmonis copepodids in Atlantic salmon (Salmon salar). The test was realized using 4 rounds of 4 fish, eight of which were treated with trans-9-hexadecenoic acid and the other eight used as a control. For each round 4 fish were tested; i.e., 2 treated fish and 2 controls. To be included in the study the smolts had to have a body weight between 70 g and 150 g and the copepodits had to be able to swim actively. If the smolts had disease, loss of scales, fin damage, cataracts and/or swam abnormally they were not used in the study. If the copepodits were immobile after stimulation, they were rejected from the study. For each round 4 fish are caught and introduced into four 2-liter flat beakers supplied with 1.75 liters of seawater. The treated fish had 6 ppm of trans-9-hexadecenoic acid placed in their seawater, while in the control only seawater was used. 0.52 ml of the treatment or control were directly injected into 1.75 liters of seawater. The 4 fish were bathed in this solution for 10 minutes. The fish were then transferred to another 3.5 liter beaker supplied with 3.5 liters of seawater treated either with 3 ppm of trans-9-hexadecenoic acid or a control of simply seawater. 0.52 ml of the treatment of control were directly injected into 3.5 liters of seawater. The flat beakers were equipped with a valve such that 0.875 liters were emptied from the flat beaker. When the fish were introduced into the beakers, the valves were turned on. Ten minutes after the valves were turned on, the beakers were supplied with either 0.875 liters of the treatment of trans-9-hexadecenoic acid or 0.875 liters of the control of seawater. Ten minutes thereafter (20 minutes after the introduction of the fish into the beakers), the valves were turned off and 60 copepodits per fish were injected into each flat beaker. Five minutes later (25 minutes after introduction of the fish into the beakers), the valves were turned on. Ten minutes later (35 minutes after introduction of the fish into the beakers) each beaker was supplied with either 0.875 liters of trans-9-hexadecenoic acid or 0.875 liters of the control of seawater. Ten minutes later (45 minutes after introduction of the fish into the beakers) each beaker was supplied with either 0.875 liters of trans-9-hexadecenoic acid or 0.875 liters of the control of seawater. […] The content of plastic bag was then emptied above a filter and the number of copepodits was then counted on each filter using a magnifying glass. […] Data was analyzed using 9.4 SAS software (2002-2012 by SAS Institute Inc., Cary, N.C., U.S.A.). […]

copepodits = assay: Infestation test of smolts with copepodits (Examples 4 to 6); type: in vivo, Lepeophtheirus salmonis
Experimental: This test exposed young salmons (smolts weighting almost 70 grams) to a high density group of copepodits during 45 minutes in a testing device, which consisted of four 23 cm diameter tanks, with an outflow. […] Light can modify the behavior of the copepodits which have phototropism. Each tank received a smolt for 45 min (FIG. 6). The copepodits were first fished out of their rearing tank and counted on a stereomicroscope. Four infesting doses of copepodits, containing 60 copepodits each, were prepared for each run of the test. The smolts were placed in a tank containing the treatment solution (or the placebo), which concentration in active substance was 6 ppm. This bath lasted for 10 minutes. Then the smolts were placed in a tank where they were kept in 3 ppm of the same treatment (product or placebo) used in the previous bath to begin the testing. The purpose of this process was to prevent any dramatic decrease in the concentration of the active product on their skin. During the first 10 minutes, the outflow was open and the tent was closed. At that moment each tank was refilled to reach the initial volume of oxygenated liquid (refilled with the same solution, product or placebo). The outflow was then closed for 5 minutes and the infesting dose was introduced in the tank. Then the outflow was opened and stayed opened for 30 minutes with a refill every 10 minutes (without opening the tent). After 45 minutes of exposure to the copepodits, the smolts were euthanized by administration of a toxic dose of anaesthetic agent Benzoake, at a concentration of 10 times the normal dose of 30 to 40 mg/l. The dead fish were placed in a plastic bag in which they were rubbed and rinsed with sea water. The skin of the fish was rubbed with a metallic spoon, to remove all the possible copepodits attached on it, as shown in FIG. 7. Each fish was washed thus detaching all of the copepodits and shells from the fish skin. The collected liquid from the washing was filtered to count the parasites. The copepodits were counted on the filter to obtain the number of copepodites on the outer body of the fish. The gills were then dissected to count the number of copepodits on the gills. The first phase of the test compared the number of copepodits on the body and on the gills, between replicas of the test. The purpose of this phase was to validate the test and measure its standard deviation. The second phase of the test compared the number of copepodits (abbreviated cops in the Tables below) on the body and on the gills, between treated smolts and reference smolts, as a control, which were just bathed in seawater plus ethyl alcohol for the five solutions. The same test as in Example 4 was repeated using palmitoleic acid. […] The same experiment was undertaken as described in Example 4.

[2] = test system: Lepeophtheirus salmonis copepodids; assay: Infestation test with water dispersible tablets (Example 9); type: in vivo
From the text: The purpose of this example was to assess the efficacy of the sea lice copepodits attachment inhibiting semiochemical (SCAIS), continuously released by water dispersible tablets, on the infestation behaviour of Lepeophtheirus salmonis copepodids in Atlantic salmon smolts (Salmo salar).
72 Atlantic salmon (Salmo salar) in the smolt stage having a weight around 90 g and of the origin SALMAR® (Daugstad 6392 Vikebukt, Norway) were used in this study. 2,400 copepodits used were from the species Lepeophtheirus salmonis origin Ilab® (Bergen, Norway).
Infestation tests were measured at 1 hour, 24 hours, 72 hours and 120 hours after application of the treatment. Blood tests were undertaken at 0 hours, 1 hour, 24 hours, 72 hours and 120 hours after treatment.
[…] were used and the study was conducted in two parallel groups of Atlantic salmon smolts, one group was treated with the sea lice copepodits attachment inhibiting semiochemical tablets of cis-9-hexdecenoic acid, which were placed in a string bag half way down where the water resides in the rearing tank and the other group was the control using only ethyl alcohol.
The infestation test, carried out at 1 hour, 24 hours, 72 hours and 120 hours after application of the treatment was performed in the following manner. […]

[3] = 8 treated fish, 6 ppm then 3 ppm
[4] = mean of replicas, 6 ppm bath then 3 ppm, 60 copepodits, 45 minutes

SMILES	Nb copepodits, Mean [1, 3]	Nb copepodits, Median [1, 3]	Number of copepodits ([1]; single fish, 6 ppm bath 10 minutes then 3 ppm, 60 copepodits per fish)	effect on number of copepodits attached in Atlantic salmons (in words) ([1]; vs seawater control)	Number of copepodits attached in the gills, Mean (copepodits; Example 6, Treated salmons)	Number of copepodits attached in the gills, Median (copepodits; Example 6, Treated salmons)	Number of copepodits attached to body, Mean (copepodits; Example 6, Treated salmons)	Number of copepodits attached to body, Median (copepodits; Example 6, Treated salmons)	reduction in number of copepodits attached on the body of the salmon (in words) (copepodits; Example 6, vs control salmons and control cods)	effect on attachment of copepodits on smolts (in words) (copepodits; Examples 4 and 5, vs reference smolts in seawater plus ethyl alcohol)	Cop on body, mean (copepodits; [4])	Cop on gills, mean (copepodits; [4])	Cop on body (copepodits; single replica (smolt), 6 ppm bath 10 minutes then 3 ppm, 60 copepodits, 45 minutes)	mean number of copepodits attached ([2]; treatment group, water dispersible tablets in rearing tank, 60 copepodits per fish, preliminary analysis)	protection in infestation tests (in words) ([2]; water dispersible tablets, 60 copepodits per fish in closed 3.5 liter tank)
CCCCCC/C=C/CCCCCCCC(=O)O [SCAIS^iso, trans-9-hexadecenoic acid]	10	9	8	significant effect on the number of copepodits attached	–	–	–	–	–	–	–	–	–	–	–
CCCCCC/C=C\CCCCCCCC(=O)O [palmitoleic acid, cis-9-hexadecenoic acid]	–	–	–	–	2.375	2.5	6.25	6	highly significant reduction	important reduction of the infestation	8.0	2.8	6 and 11 and 7 and 8	10.6	significant protection
